Experimental data from patent US20080021002A1, “VITAMIN D COMPOUNDS USED TO STABILIZE KIDNEY TRANSPLANTS” (priority 2000, published 2008).

Assays:
Type in all cases: in vivo, rat
bioactive TGFβ-1 [1] = assay: Antigen-capture ELISA of renal graft lysates, bioactive TGFβ-1; settings: treated recipients vs untreated allogeneic control grafts
Method: (§1) Enzyme Linked Immunoabsorbant Assay (ELISA): TGFβ-1 and MMP 2 levels were quantified by antigen-capture ELISA. […] After blocking with 1× block buffer at 37° C. for 35 minutes 25 ul of cell lysate (diluted 1:10 in the lysis buffer) was added to the wells. A standard curve was generated by performing two fold serial dilutions of the standard active TGFβ-1 antigen (diluted 15.6 pg/ml to 1000 pg/ml, Promega, Inc.) or MMP2 (0.5 ng/ml to 100 ng/ml, R and D Systems). The plate was incubated for 2 hours at RT with shaking and then washed extensively with wash buffer (0.05% Tween 20 in PBS) followed by PBS. The TGFβ-1 ELISA was then developed according to the manufacturer's instruction. For the MMP2 ELISA, biotinylated detection antibody, clone 101721 (25 μL/well at 1.4 ug/ml R and D Systems) was added and incubated at RT (1hour, with shaking). The antibody was biotinylated using a Mini-Biotin-XX Protein Labeling Kit (F-6347) according to manufacturer's instruction (Molecular Probes, Eugene Oreg.). Following further washing, avidin-peroxidase conjugate was added (25 ul/well at 1:5000) for 30 minutes at RT. A color reaction was developed by the addition of 25 ul of the TMB (3, 3′, 5, 5′-tetramethylbenzidine)/hydrogen peroxidase substrate solution, (KPL, Gaithersberg, Md.). […] Absorbance was measured at 450 nm on a Vmax Kinetic microplate reader (Molecular Devices, Sunnyvale Calif.). […]

MMP 2 mRNA = assay: Semi-quantitative RT-PCR of renal grafts, MMP 2 mRNA
Method: (§2) FIG. 5 is a set of graphs showing that 1,25-(OH)2D3 Treatment Alters MMP and TIMP Expression . […] S26 was used as the housekeeping gene. […] Fold changes are expressed relative to the allogeneic untreated control.
(§3) Semi-quantitative Reverse transcription polymerace chain reaction (RT-PCR): Following graft harvest a […] containing both cortex and medulla was snap frozen in liquid nitrogen. Semi-quantitative RT-PCR was performed as described. Little et al. Transplant Int. 12:393-401, 1999. Briefly, samples were homogenized then total RNA extracted with RNAzol B (Tel Test, Inc., Friendswood, Tex.) and reversed transcribed to cDNA according to manufacturer=s instructions (Superscript, Gibco BRL). PCR was performed over the linear range of amplification for both the gene of interest, e.g. TGFβ-1, and the ribosomal protein S26 as a control housekeeping gene. PCR conditions were chosen such that both products were amplified with similar efficiency. The following cycle parameters were employed: denaturing, 94° C. for 60 seconds; annealing, 61° C. for 60 seconds; and extension, 72° C. for 60 seconds. The amount of product was quantified using a phosphoimager (Storm 80) following gel electrophoresis and Vista green detection.

bioactive TGFβ-1 [2] = assay: Immunohistochemistry of renal grafts for bioactive TGFβ-1
Method: FIGS. 6 (B) and (C) show immunohistochemistry for bioactive TGFβ-1 in two 1,25-(OH)2D3 treated grafts (1000 ng/rat/day). […] Magnification 200×.
Immunhistochemistry: Formalin fixed, paraffin embedded rat kidneys were sectioned to 4 microns. Sections were rewarmed on day of staining at 60° for 10 minutes, then deparaffinized in xylene for 30 minutes followed by rehydration. Sections were washed twice in distilled water and antigen retrieval performed. Briefly, section were soaked in 100 mM citrate buffer, pH=6.0 for 10 minutes at 90° C. and then heated to 115° C. or 20 minutes Sections were allowed to cool and then washed in PBS and blocked for 10 minutes with BIOCARE SUPER SNIPER9 (BS996L) followed by diluted primary TGFβ-1 antibody (1:150 (Promega Corp., Madison, Wis.; G1221) at 4° C. overnight. Slides were washed (3×5 minutes, PBS) and secondary antibody applied (1 hour at RT, MACHII BIOCARE goat anti-rabbit with polymer spacer; RHRP52OH, Walnut Creek, Calif.).
Slides were developed with Pierce=s Stable Peroxide buffer (cat #1855910) and Pierce=s Stable Metal enhanced DAB solution (cat #1856090).

TIMP 1 mRNA = assay: Semi-quantitative RT-PCR of renal grafts, TIMP 1 mRNA; settings: all groups vs untreated allograft recipients, regardless of treatment
Method: as §2, §3

Smad 2 mRNA = assay: Semi-quantitative RT-PCR of renal grafts, Smad 2 mRNA; settings: vs controls
Method: as §3

MMP 9 mRNA = assay: Semi-quantitative RT-PCR of renal grafts, MMP 9 mRNA; settings: all groups vs syngeneic untreated controls, regardless of treatment
Method: FIG. 5 is a set of graphs showing that 1,25-(OH)2D3 Treatment Alters MMP and TIMP Expression . […] S26 was used as the housekeeping gene. […]
as §3

Vitamin D receptor mRNA = assay: Semi-quantitative RT-PCR of renal grafts, vitamin D receptor mRNA
Method: as §3, with “12:393-401, 1999.” left out

MMP 2 protein = assay: Antigen-capture ELISA of renal graft lysates, total MMP 2 protein; settings: vs untreated allogeneic group (FIG. 5B); 1,25-(OH)2D3: syngeneic and allogeneic groups; CSA: allogeneic
Method: as §2
as §1, with “Oreg.).” for “Oreg.). Following further washing, avidin-peroxidase conjugate was added (25 ul/well at 1:5000) for 30 minutes at RT. A color reaction was developed by the addition of 25 ul of the TMB (3, 3′, 5, 5′-tetramethylbenzidine)/hydrogen peroxidase substrate solution, (KPL, Gaithersberg, Md.).”

Smad 3 mRNA = assay: Semi-quantitative RT-PCR of renal grafts, Smad 3 mRNA; settings: vs controls
Method: as §3

TGFβ-1 mRNA = assay: Semi-quantitative RT-PCR of renal grafts, TGFβ-1 mRNA; settings: treated recipients vs untreated allogeneic control grafts
Method: as §3

C=C1/C(=C\C=C2/CCC[C@]3(C)[C@@H]([C@H](C)CCCC(C)(C)O)CC[C@@H]23)C[C@@H](O)C[C@@H]1O [calcitriol, 1,25-dihydroxyvitamin D3]
Bioactive TGFβ-1 protein levels (bioactive TGFβ-1 [1]): no significant difference | Increase in MMP 2 mRNA levels (MMP 2 mRNA; allogeneic grafts (FIG. 5A)): 5.6 fold | Increase in MMP 2 mRNA levels (MMP 2 mRNA; syngeneic grafts (FIG. 5A)): 4.0 fold | Glomerular staining for bioactive TGFβ-1 (bioactive TGFβ-1 [2]; 1000 ng/rat/day (FIG. 6 legend)): significantly decreased | Bioactive TGFβ-1 staining in tubular areas (bioactive TGFβ-1 [2]; allogeneic grafts (FIG. 6)): extensive staining | Bioactive TGFβ-1 expression in glomeruli (bioactive TGFβ-1 [2]; treated grafts in contrast to untreated control grafts (FIG. 6)): little bioactive TFGβ-1 expression | TIMP 1 mRNA expression (TIMP 1 mRNA): decreased | Smad 2 mRNA levels (Smad 2 mRNA): no significant change | MMP 9 mRNA (MMP 9 mRNA): increased | Vitamin D receptor mRNA expression (Vitamin D receptor mRNA; all treated groups vs untreated syngeneic control (data not shown)): elevated | Vitamin D receptor mRNA expression (Vitamin D receptor mRNA; vs untreated allogeneic control (data not shown)): not significantly different | Total MMP 2 protein expression (MMP 2 protein): increased | Smad 3 mRNA levels (Smad 3 mRNA): no significant change | TGFβ-1 mRNA levels (TGFβ-1 mRNA): no significant difference
